For one test, the target named is PRC2 complex (EZH2 Y641F/EED/SUZ12/RbAp48/AEBP2) (Homo sapiens (Human), UniProt Q15910, Y641F). Nature of the test: Activity of a compound to PRC2 complex (EZH2 Y641F), HTRF.
PRC2 complex (EZH2 Y641F/EED/SUZ12/RbAp48/AEBP2), sequence (Q15910 whole entry Y641F): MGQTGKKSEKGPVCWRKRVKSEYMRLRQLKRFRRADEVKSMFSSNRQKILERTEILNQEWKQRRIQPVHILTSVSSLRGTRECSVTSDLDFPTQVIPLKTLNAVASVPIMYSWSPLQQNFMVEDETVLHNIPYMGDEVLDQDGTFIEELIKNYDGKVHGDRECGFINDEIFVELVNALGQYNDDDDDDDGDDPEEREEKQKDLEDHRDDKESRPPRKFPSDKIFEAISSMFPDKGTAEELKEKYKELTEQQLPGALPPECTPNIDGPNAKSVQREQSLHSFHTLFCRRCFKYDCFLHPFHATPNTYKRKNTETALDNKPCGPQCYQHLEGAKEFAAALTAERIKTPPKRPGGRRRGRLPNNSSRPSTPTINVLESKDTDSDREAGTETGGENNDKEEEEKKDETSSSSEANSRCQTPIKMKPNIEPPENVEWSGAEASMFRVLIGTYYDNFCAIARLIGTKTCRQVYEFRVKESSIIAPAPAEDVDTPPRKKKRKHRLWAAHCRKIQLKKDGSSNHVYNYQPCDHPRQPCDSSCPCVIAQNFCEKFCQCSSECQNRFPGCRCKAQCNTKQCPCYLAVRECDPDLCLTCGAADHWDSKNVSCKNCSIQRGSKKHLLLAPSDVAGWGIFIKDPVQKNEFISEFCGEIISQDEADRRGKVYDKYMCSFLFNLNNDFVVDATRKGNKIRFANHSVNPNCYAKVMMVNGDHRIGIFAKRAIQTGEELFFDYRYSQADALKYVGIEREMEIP
PRC2 complex (EZH2 Y641F/EED/SUZ12/RbAp48/AEBP2), sequence (O75530 whole entry partner): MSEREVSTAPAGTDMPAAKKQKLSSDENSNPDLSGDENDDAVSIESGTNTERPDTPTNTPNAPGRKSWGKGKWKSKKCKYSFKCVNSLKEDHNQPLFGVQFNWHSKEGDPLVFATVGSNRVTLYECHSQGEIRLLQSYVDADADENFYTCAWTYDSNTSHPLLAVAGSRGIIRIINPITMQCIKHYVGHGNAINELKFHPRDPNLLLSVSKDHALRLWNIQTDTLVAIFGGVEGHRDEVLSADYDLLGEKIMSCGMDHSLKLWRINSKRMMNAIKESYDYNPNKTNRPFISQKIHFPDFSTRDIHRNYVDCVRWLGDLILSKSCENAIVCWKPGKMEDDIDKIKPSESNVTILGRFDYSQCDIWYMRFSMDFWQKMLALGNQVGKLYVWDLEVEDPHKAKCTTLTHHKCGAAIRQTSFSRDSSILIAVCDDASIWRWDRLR
PRC2 complex (EZH2 Y641F/EED/SUZ12/RbAp48/AEBP2), sequence (Q15022 whole entry partner): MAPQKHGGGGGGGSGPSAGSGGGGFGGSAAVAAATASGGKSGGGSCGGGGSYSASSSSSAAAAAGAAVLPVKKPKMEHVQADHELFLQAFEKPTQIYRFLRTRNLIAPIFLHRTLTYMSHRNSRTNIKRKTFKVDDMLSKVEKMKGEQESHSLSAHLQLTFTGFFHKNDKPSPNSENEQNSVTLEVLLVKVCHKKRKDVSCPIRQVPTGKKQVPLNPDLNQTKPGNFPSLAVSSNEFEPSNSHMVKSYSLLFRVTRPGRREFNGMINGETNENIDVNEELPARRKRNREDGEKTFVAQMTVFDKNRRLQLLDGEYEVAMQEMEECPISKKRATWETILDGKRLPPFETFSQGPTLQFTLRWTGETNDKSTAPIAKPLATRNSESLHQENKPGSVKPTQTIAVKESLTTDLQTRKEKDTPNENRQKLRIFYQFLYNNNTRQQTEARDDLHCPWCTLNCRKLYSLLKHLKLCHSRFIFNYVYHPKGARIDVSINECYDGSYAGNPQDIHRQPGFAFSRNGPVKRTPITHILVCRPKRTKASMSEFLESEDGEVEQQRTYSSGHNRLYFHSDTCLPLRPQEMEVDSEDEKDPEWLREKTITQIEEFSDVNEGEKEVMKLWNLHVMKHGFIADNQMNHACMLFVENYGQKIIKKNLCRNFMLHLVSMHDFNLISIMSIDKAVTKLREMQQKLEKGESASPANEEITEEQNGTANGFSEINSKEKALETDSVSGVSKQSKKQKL
PRC2 complex (EZH2 Y641F/EED/SUZ12/RbAp48/AEBP2), sequence (Q09028 whole entry partner): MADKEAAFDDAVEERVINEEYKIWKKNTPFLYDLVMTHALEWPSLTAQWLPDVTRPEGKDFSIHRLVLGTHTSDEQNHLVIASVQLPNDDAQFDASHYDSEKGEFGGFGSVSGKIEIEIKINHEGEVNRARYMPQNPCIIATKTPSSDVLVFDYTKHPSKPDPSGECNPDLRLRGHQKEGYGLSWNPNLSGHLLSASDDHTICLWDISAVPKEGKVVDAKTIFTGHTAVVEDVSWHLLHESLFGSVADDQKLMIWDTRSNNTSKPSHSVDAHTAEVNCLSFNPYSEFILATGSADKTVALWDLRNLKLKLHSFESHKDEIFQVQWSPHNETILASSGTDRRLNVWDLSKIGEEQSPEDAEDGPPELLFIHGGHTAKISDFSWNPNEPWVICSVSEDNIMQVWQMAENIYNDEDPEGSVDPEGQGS
PRC2 complex (EZH2 Y641F/EED/SUZ12/RbAp48/AEBP2), sequence (Q6ZN18 whole entry partner): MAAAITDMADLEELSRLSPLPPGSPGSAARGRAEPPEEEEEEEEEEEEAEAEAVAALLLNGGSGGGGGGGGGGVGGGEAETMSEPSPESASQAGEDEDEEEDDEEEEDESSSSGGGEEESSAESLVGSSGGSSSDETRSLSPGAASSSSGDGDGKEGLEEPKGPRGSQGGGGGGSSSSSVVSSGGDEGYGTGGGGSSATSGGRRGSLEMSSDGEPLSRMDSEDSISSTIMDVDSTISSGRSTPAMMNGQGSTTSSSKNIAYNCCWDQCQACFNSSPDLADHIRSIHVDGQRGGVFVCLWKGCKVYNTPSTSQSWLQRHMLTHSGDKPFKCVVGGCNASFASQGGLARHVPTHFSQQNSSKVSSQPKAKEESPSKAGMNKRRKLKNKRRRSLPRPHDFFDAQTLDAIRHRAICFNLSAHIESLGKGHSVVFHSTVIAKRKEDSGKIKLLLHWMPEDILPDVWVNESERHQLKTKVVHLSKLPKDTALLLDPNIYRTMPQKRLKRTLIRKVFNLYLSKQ
Conditions: not given
On the technique in general: Time-resolved FRET reads energy transfer from a long-lived donor to a nearby acceptor.
One may read the IC50 as the concentration that gives 50% inhibition. `CCN(c1c(C)c(C(=O)NCc2c(C)cc(C)[nH]c2=O)cc2cc(Br)cn12)C1CCOCC1` [Example 58, 2-bromo-N-((4,6-dimethyl-2-oxo-1,2-dihydropyridin-3-yl)methyl)-5-(ethyl(tetrahydro-2H-pyran-4-yl)amino)-6-methylindolizine-7-carboxamide] came in with a concentration for half-maximal inhibition (IC50) of 100 to 1000 nM.

In the case of `Cc1cc(C)c(CNC(=O)c2cc3cc(-c4ccncc4)cn3c(C(C)N3CCC(N(C)C)CC3)c2C)c(=O)[nH]1` (stereo not drawn) [Example 93, N-((4,6-dimethyl-2-oxo-1,2-dihydropyridin-3-yl)methyl)-5-(1-(4-(dimethylamino)piperidine-1-yl)ethyl)-6-methyl-2-(pyridin-4-yl)indolizine-7-carboxamide], the IC50 is less than 100 nM.

`Cc1cc(C)c(CNC(=O)c2cc3cc(Br)cn3c(C(C)N3CCN(S(C)(=O)=O)CC3)c2C)c(=O)[nH]1` (stereo not drawn) [Example 103, 2-bromo-N-((4,6-dimethyl-2-oxo-1,2-dihydropyridin-3-yl)methyl)-6-methyl-5-(1-(4-(methylsulfonyl)piperazin-1-yl)ethyl)indolizine-7-carboxamide] came in with an IC50 of 100 to 1000 nM.

As for `COc1cc(-c2cc3cc(C(=O)NCc4c(C)cc(C)[nH]c4=O)c(C)c(C(C)N4CCOCC4)n3c2)cc(OC)c1OC` (stereo not drawn) [Example 37, N-((4,6-dimethyl-2-oxo-1,2-dihydropyridin-3-yl)methyl)-6-methyl-5-(1-morpholinylethyl)-2-(3,4,5-trimethoxyphenyl)indolizine-7-carboxamide], the IC50 is less than 100 nM.

In turn, `Cc1cc(C)c(CNC(=O)c2cc3c(-c4cccc(N5CCOCC5)c4)ccn3c(C(C)N3CCOCC3)c2C)c(=O)[nH]1` (stereo not drawn) [Example 117, N-((4,6-dimethyl-2-oxo-1,2-dihydropyridin-3-yl)methyl)-6-methyl-5-(1-morpholinylethyl)-1-(3-morpholinylphenyl)indolizine-7-carboxamide] gave an IC50 of less than 100 nM.

Still in this test, the particulars now being: read-out: IC50 (EZH2_Y641F); EZH2 Y641F PRC2 complex, HTRF; class symbols.
For `COc1cccc(-c2ccn3c(C(C)N4CCOCC4)c(C)c(C(=O)NCc4c(C)cc(C)[nH]c4=O)cc23)c1` (stereo not drawn) [Example 120, N-((4,6-dimethyl-2-oxo-1,2-dihydropyridin-3-yl)methyl)-6-methyl-5-(1-morpholinylethyl)-1-(3-methoxyphenyl)indolizine-7-amide], the IC50 was less than 100 nM.

With `Cc1cc(C)c(CNC(=O)c2cc3cccn3c(C(C)OC3C=CCCC3)c2C)c(=O)[nH]1` (stereo not drawn) [Example 7, 5-((cyclohex-2-en-1-yloxy)ethyl)-N-((4,6-dimethyl-2-oxo-1,2-dihydropyridin-3-yl)methyl)-6-methylindolizine-7-carboxamide], the IC50 is 100 to 1000 nM.

With `Cc1cc(C)c(CNC(=O)c2cc3cc(Br)cn3c(C(C)N3CCC(F)(F)CC3)c2C)c(=O)[nH]1` (stereo not drawn) [Example 123, 2-bromo-5-(1-(4,4-difluoropiperidin-1-yl)ethyl)-N-((4,6-dimethyl-2-oxo-1,2-dihydropyridin-3-yl)methyl)-6-methylindolizine-7-carboxamide], the IC50 fell in the range of 1000 to 10000 nM.

For the molecule `Cc1cc(C)c(CNC(=O)c2cc3cc(Br)cn3c(C(C)N3CCC(C#N)CC3)c2C)c(=O)[nH]1` (stereo not drawn) [Example 146, 2-bromo-5-(1-(4-cyanopiperidin-1-yl)ethyl)-N-((4,6-dimethyl-2-oxo-1,2-dihydropyridin-3-yl)methyl)-6-methylindolizine-7-carboxamide], the IC50 was in the range of 100 to 1000 nM.

`C=C(C)COC(C)c1c(C)c(C(=O)NCc2c(C)cc(C)[nH]c2=O)cc2cccn12` (stereo not drawn) [Example 5, N-((4,6-Dimethyl-2-oxo-1,2-dihydropyridin-3-yl)methyl)-6-methyl-5-(1-((2-methylallyl)oxy)ethyl)indolizine-7-carboxamide]: the IC50 is 100 to 1000 nM.

On to `Cc1cc(C)c(CNC(=O)c2cc3cc(Br)cn3c(C(C)Oc3ccc(N(C)C)cc3)c2C)c(=O)[nH]1` (stereo not drawn) [Example 30], for which the IC50 is less than 100 nM.

With “(S)-1-Chloro-N-((4,6-dimethyl-2-oxo-1,2-dihydropyridin-3-yl)methyl)-6-methyl-5-(1-morphinolinylethyl)pyridazin-7-carboxamide or (R)-1-chloro-N-((4,6-dimethyl-2-oxo-1,2-dihydro)pyridin-3-yl)methyl)-6-methyl-5-(1-morphinolinylethyl)pyridazin-7-carboxamide [Compound 29]”, the IC50 was in the range of 100 to 1000 nM.

Consider `COc1cc(-c2cc3cc(C(=O)NCc4c(C)cc(C)[nH]c4=O)c(C)c(C(C)OC)n3c2)cc(OC)c1OC` (stereo not drawn) [Compound 151], for which the IC50 is less than 100 nM.

In the case of `COc1cc(C)[nH]c(=O)c1CNC(=O)c1cc2c(-c3cc(C)nc(C)c3)ccn2c(C(C)N2CCN(CC(F)(F)F)CC2)c1C` (stereo not drawn) [Compound 173], the IC50 was less than 100 nM.

In the case of `Cc1cc(C)c(CNC(=O)c2cc3cc(-c4cncs4)cn3c(C(C)N3CCC(N(C)C)CC3)c2C)c(=O)[nH]1` (stereo not drawn) [Example 138], the IC50 was less than 100 nM.

Take “(S)-1-Chloro-N-((4,6-dimethyl-2-oxo-1,2-dihydropyridin-3-yl)methyl)-6-methyl-5-(1-morphinolinylethyl)pyridazin-7-carboxamide or (R)-1-chloro-N-((4,6-dimethyl-2-oxo-1,2-dihydro)pyridin-3-yl)methyl)-6-methyl-5-(1-morphinolinylethyl)pyridazin-7-carboxamide [Example 28]”: the IC50 was less than 100 nM.

Take `Cc1cc(C)c(CNC(=O)c2cc3cccn3c(C(C)Oc3ccc(N(C)C)cc3)c2C)c(=O)[nH]1` (stereo not drawn) [Example 22]: the IC50 was in the range of 1000 to 10000 nM.

Take `Cc1cc(C)c(CNC(=O)c2cc3cc(-c4ccn(C)n4)cn3c(C(C)N3CCC(N(C)C)CC3)c2C)c(=O)[nH]1` (stereo not drawn) [Example 77, N-((4,6-dimethyl-2-oxo-1,2-dihydropyridin-3-yl)methyl)-5-(1-(4-(dimethylamino)piperidine-1-yl)ethyl)-6-methyl-2-(1-methyl-1H-pyrazol-3-yl)indolizin-7-carboxamide]: the IC50 was less than 100 nM.

Regarding `CCN1CCN(C(C)c2c(C)c(C(=O)NCc3c(C)cc(C)[nH]c3=O)cc3cc(Br)cn23)CC1` (stereo not drawn) [Example 98, N-((4,6-dimethyl-2-oxo-1,2-dihydropyridin-3-yl)methyl)-6-methyl-5-(1-(4-methylpiperazine)-1-ethyl)-2-bromoindolizine-7-carboxamide], the IC50 lay in the range of 100 to 1000 nM.

Turning to `COc1cc(C)[nH]c(=O)c1CNC(=O)c1cc2c(-c3ccnc(Cl)c3)ccn2c([C@H](C)N2CCN(CC(F)(F)F)CC2)c1C` (single isomer, unassigned) [Compound 168, (S)-1-(2-chloropyridin-4-yl)-N-((4-methoxy-6-methyl-2-oxo-1,2-dihydropyridine-3-yl)methyl)-6-methyl-5-(1-(4-(2,2,2-trifluoroethyl)piperazin-1-yl)ethyl)indolizine-7-carboxamide or (R) 1-(2-chloropyridin-4-yl)-N-((4-methoxy-6-methyl-2-oxo-1,2-dihydropyridine-3-yl)methyl)-6-methyl-5-(1-(4-(2,2,2-trifluoroethyl)piperazin-1-yl)ethyl)indolizine-7-carboxamide], the IC50 fell in the range of 100 to 1000 nM.

On to `Cc1cc(C)c(CNC(=O)c2cc3c(-c4ccc(N)nc4)ccn3c([C@H](C)N3CCN(CC(F)(F)F)CC3)c2C)c(=O)[nH]1` (single isomer, unassigned) [Compound 160, (S)-1-(6-aminopyridin-3-yl)-N-((4,6-dimethyl-2-oxo-1,2-dihydropyridin-3-yl)methyl)-6-methyl-5-(1-(4-(2,2,2-trifluoroethyl)piperazin-1-yl)ethyl)indolizine-7-carboxamide or (R) 1-(6-aminopyridin-3-yl)-N-((4,6-dimethyl-2-oxo-1,2-dihydropyridin-3-yl)methyl)-6-methyl-5-(1-(4-(2,2,2-trifluoroethyl)piperazin-1-yl)ethyl)indolizine-7-carboxamide], for which the IC50 was less than 100 nM.

`Cc1cc(C)c(CNC(=O)c2cc3c(Br)ccn3c(C(C)N3CCOCC3)c2C)c(=O)[nH]1` (stereo not drawn) [Example 53, N-((4,6-dimethyl-2-oxo-1,2-dihydropyridin-3-yl)methyl)-6-methyl-5-(1-morphinolinylethyl)-2-(4,5,6,7-tetrahydrothiazolo[5,4-c]pyridin-2-yl)indolizine-7-carboxamide]: the IC50 is less than 100 nM.

For the molecule `COc1cc(C)[nH]c(=O)c1CNC(=O)c1cc2cc(-c3cncn3C)cn2c(C(C)N2CCC(N(C)C)CC2)c1C` (stereo not drawn) [Example 135, 5-(1-(4-(dimethylamino)piperidin-1-yl)ethyl)-N-((4-methoxy-6-methyl-2-oxo-1,2-dihydropyridin-3-yl)methyl)-6-methyl-2-(1-methyl-1H-imidazol-5-yl)indolizine-7-carboxamide], the IC50 is less than 100 nM.

Consider `Cc1cc(C)c(CNC(=O)c2cc3cccn3c(C(C)OCc3ccccc3)c2C)c(=O)[nH]1` (stereo not drawn) [Example 9, 5-(1-(benzyloxy)ethyl)-N-((4,6-dimethyl-2-oxo-1,2-dihydropyridin-3-yl)methyl)-6-methylindolizine-7-carboxamide], for which the IC50 fell in the range of 100 to 1000 nM.

As to `Cc1cc(C)c(CNC(=O)c2cc3cc(Br)cn3c(C(C)N3CCN(C(=O)CO)CC3)c2C)c(=O)[nH]1` (stereo not drawn) [Example 102], the IC50 is 1000 to 10000 nM.

For `CNc1cc(-c2ccn3c([C@H](C)N4CCN(CC(F)(F)F)CC4)c(C)c(C(=O)NCc4c(OC)cc(C)[nH]c4=O)cc23)ccn1` (single isomer, unassigned) [Compound 182, (S)—N-((4-methoxy-6-methyl-2-oxo-1,2-dihydropyridin-3-yl)methyl)-6-methyl-1-(2-(methylamino)pyridin-4-yl)-5-(1-(4-(2,2,2-trifluoroethyl)piperazin-1-yl)ethyl)indolizine-7-formamide or (R)—N-((4-methoxy-6-methyl-2-oxo-1,2-dihydropyridin-3-yl)methyl)-6-methyl-1-(2-(methylamino)pyridin-4-yl)-5-(1-(4-(2,2,2-trifluoroethyl)piperazin-1-yl)ethyl)indolizine-7-formamide], the IC50 is 100 to 1000 nM.

For the molecule `Cc1cc(C)c(CNC(=O)c2cc3cc(-c4cncn4C)cn3c(C(C)N3CCN(CC(F)(F)F)CC3)c2C)c(=O)[nH]1` (stereo not drawn) [Example 136, N-((4,6-dimethyl-2-oxo-1,2-dihydropyridin-3-yl)methyl)-6-methyl-2-(1-methyl-1H-imidazol-5-yl)-5-(1-(4-(2,2,2-trifluoroethyl)piperazin-1-yl)ethyl)indolizine-7-carboxamide], the IC50 was less than 100 nM.

For the origin of these results see patent publication US10968215B2 (SHANGHAI HAIHE PHARMACEUTICAL CO., LTD., priority 2016, dated 2021).
